The test system of this assay is Testpflanzen. Nature of the assay: Pre-emergence test (herbicidal activity). Type of assay: in vivo. Particulars: seeds watered with the preparation 24 h after sowing, rated after three weeks, compared in words with the prior-art comparison substance 2-(Benzthiazol-2-yl-oxy)-essigsäure-N-methyl-anilid, no numbers given. The text has this: Zur Herstellung einer zweckmäßigen Wirkstoffzubereitung vermischt man 1 Gewichtsteil Wirkstoff mit der angegebenen Menge Lösungsmittel, gibt die angegebene Menge Emulgator zu und verdünnt das Konzentrat mit Wasser auf die gewünschte Konzentration.
Samen der Testpflanzen werden in normalen Boden ausgesät und nach 24 Stunden mit der Wirkstoffzubereitung begossen. Dabei hält man die Wassermenge pro Flächeneinheit zweckmäßigerweise konstant. Die Wirkstoffkonzentration in der Zubereitung spielt keine Rolle, entscheidend ist nur die Aufwandmenge des Wirkstoffs pro Flächeneinheit. Nach drei Wochen wird der Schädigungsgrad der Pflanzen bonitiert in % Schädigung im Vergleich zur Entwicklung der unbehandelten Kontrolle.

As for `CN(C(=O)COc1nc(C#N)c(Cl)s1)c1ccccc1` [Beispiel 1, 2-(5-Chlor-4-cyanothiazol-2-yl-oxy)-essigsäure-N-methyl-anilid], the “Wirksamkeit (Schädigungsgrad der Pflanzen in % Schädigung im Vergleich zur unbehandelten Kontrolle)” value is “deutliche Überlegenheit in der Wirksamkeit”.

These data come from patent publication EP0348735A2, “5-Chlor-4-cyano-thiazol-2-yl-oxyacetic-acid amide” (BAYER AG, priority 1988, dated 1990).
